Patent publication US20080171737A1 (Wyeth, priority 2006, published 2008)
Where a name gives a salt, the structure may show the parent alone.

Target: T1, human hNET (Homo sapiens, UniProt P23975)
T1 construct: expressed in transfected cells; host or cells: MDCK-Net6 (MDCK cells stably transfected with hNET)
Assay: Functional norepinephrine reuptake assay, Procedure B (6,000 cells/well)
Assay type: cell-based
Conditions: not given
Description: For screening, 25 μl aliquots of compound solution at a 1 μM or 10 μM final concentration was delivered directly to cells.
For IC50 determinations, stock compounds were prepared at 10 mM from powder. The stock solution was diluted according to compound testing range. […] On the day of assay, 25 μl of compound solution at the specified concentrations were added to the plates containing cells. A DMSO stock of desipramine was prepared at 10 mM in DMSO and diluted for a final concentration of 20 μM to determine the non-specific reuptake.
MDCK-Net6 cells, stably transfected with human hNET (Pacholczyk, 1991), were maintained in growth media [high glucose DMEM (Gibco Cat. 11995), 10% FBS (dialyzed, heat-inactivated, Sigma, dialysed, heat inactivated, Lot# K0922 or equivalent) 1xPen/Strep, and 500 μg/ml G418 (Gibco Cat. 10131)]. Cells were plated at 300,000/T75 flask and cells split twice weekly.
Cells were plated at 50,000 cells/well (Procedure A) or 6,000 cells/well (Procedure B) on day 1 in BD Falcon Microtest 96-well sterile cell culture plates, Optilux White/Clear Bottom TC plate (VWR; # 62406-466 or equivalent) in growth media and maintained in a cell incubator (37° C., 5% CO2). On Day 2, cells were removed from the cell incubator and the growth media is replaced by 200 μl of assay buffer (25 mm HEPES 120 mM NaCL; 5 mM KCl; 2.5 mM CaCl2; 1.2 mM MgSO4; 2 mg/ml glucose (pH 7.4, 37° C.)) containing 0.2 mg/ml ascorbic acid and 1 μM parglyine. For screening, 25 μl of compound in 4% DMSO was added directly to each well and the plate was incubated for 5 minutes (37° C.). […] The reaction is aspirated from the plate and the cells washed with 250 μl of 50 mM Tris Buffer (4° C.). The plates were left to dry for 1 hour. The cells were lysed using 0.25 M NaOH solution then placed on a shake table and vigorously shaken for 10 minutes. After cell lysis, 100 μl of Microscint 20 (PerkinElmer; #87-051101) was added to the plates and the plates were sealed with film tape and replaced on the shake table for a minimum of 10 minutes. The plates were counted in a TopCount counter (PerkinElmer).
% inhibition=[1−((mean cpm test compound wells−mean cpm non-specific wells)/(mean cpm control wells−mean cpm non-specific wells))]×100
For IC50 determination, raw cpm values were generated in a data file from the TopCount counter. The data was organized using the Microsoft Excel and transferred into PRIZM graphing and statistical program, which calculated the estimated IC50 value. Calculation of IC50 values was made using non-linear regression analysis with a sigmoidal dose response with variable slope. The statistical program used wells containing ^3H norepinephrine only as the maximal NE reuptake determinant and wells containing ^3H norepinephrine plus 20 μM desipramine (AHR-9543) as the minimal NE reuptake determinant (non-specific determinant). Estimation of the IC50 value was completed on a log scale and the line was fit between the maximal and minimal NE reuptake values.

T1 sequence (P23975 whole entry): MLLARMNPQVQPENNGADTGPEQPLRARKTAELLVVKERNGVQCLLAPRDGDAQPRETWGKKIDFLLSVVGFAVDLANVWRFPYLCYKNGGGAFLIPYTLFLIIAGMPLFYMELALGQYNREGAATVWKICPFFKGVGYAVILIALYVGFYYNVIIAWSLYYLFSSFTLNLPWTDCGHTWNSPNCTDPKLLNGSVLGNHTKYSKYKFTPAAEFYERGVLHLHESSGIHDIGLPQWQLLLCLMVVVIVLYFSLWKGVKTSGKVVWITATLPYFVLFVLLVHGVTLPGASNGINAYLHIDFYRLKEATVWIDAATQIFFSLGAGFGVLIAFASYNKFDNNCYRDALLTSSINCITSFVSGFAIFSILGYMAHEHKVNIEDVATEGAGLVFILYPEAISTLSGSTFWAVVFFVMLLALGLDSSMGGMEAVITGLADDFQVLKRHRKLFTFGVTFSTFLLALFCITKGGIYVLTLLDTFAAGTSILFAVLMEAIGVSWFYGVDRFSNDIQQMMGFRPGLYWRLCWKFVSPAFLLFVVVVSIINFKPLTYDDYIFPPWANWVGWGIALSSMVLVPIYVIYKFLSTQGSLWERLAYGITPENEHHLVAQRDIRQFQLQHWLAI

Question: Which IC50 does the source give for `CNCCC[C@H]1Cc2cc(F)ccc2N(c2ccccc2F)S1(=O)=O` (single isomer, unassigned) [Example 109] here?
Answer: The IC50 was 93 nM.

Question: With `CNCCC[C@@H]1Cc2cc(F)ccc2N(c2ccccc2F)S1(=O)=O` (single isomer, unassigned) [Example 110] as the molecule, how does the IC50 read?
Answer: The IC50 was 11 nM.

Same assay, conditions: MDCK-Net6 cells, 6,000 cells/well, 16 nM 3H-norepinephrine; read-out: Procedure B hNET uptake IC50

Question: For `CNCCCC1Cc2ccccc2N(c2ccc(F)cc2F)S1(=O)=O` (racemic) [Example 99, 3-[1-(2,4-difluorophenyl)-2,2-dioxido-3,4-dihydro-1H-2,1-benzothiazin-3-yl]-N-methylpropan-1-amine], which IC50 is on record?
Answer: Its IC50 is 62 nM.

Question: With `CNCCCC1Cc2cc(F)ccc2N(c2ccc(F)cc2F)S1(=O)=O` (racemic) [Example 111, 3-[1-(2,4-difluorophenyl)-6-fluoro-2,2-dioxido-3,4-dihydro-1H-2,1-benzothiazin-3-yl]-N-methylpropan-1-amine] as the molecule, how does the IC50 read?
Answer: The IC50 was 92 nM.

Question: Which IC50 does the source give for `CNCCCC1Cc2ccccc2N(c2c(F)cccc2F)S1(=O)=O` (racemic) [Example 120, 3-[1-(2,6-difluorophenyl)-2,2-dioxido-3,4-dihydro-1H-2,1-benzothiazin-3-yl]-N-methylpropan-1-amine] here?
Answer: The IC50 was 10 nM.

Question: With `CNCCCC1Cc2ccccc2N(c2cccnc2)S1(=O)=O` (racemic) [Example 123, 3-(2,2-dioxido-1-pyridin-3-yl-3,4-dihydro-1H-2,1-benzothiazin-3-yl)-N-methylpropan-1-amine] as the molecule, how does the IC50 read?
Answer: Its IC50 is 256 nM.

Question: How did the IC50 turn out when `CNCCCC1Cc2ccccc2N(c2ccccn2)S1(=O)=O` (racemic) [Example 126, 3-(2,2-dioxido-1-pyridin-2-yl-3,4-dihydro-1H-2,1-benzothiazin-3-yl)-N-methylpropan-1-amine] was run?
Answer: Its IC50 is 98 nM.

Question: How did the IC50 turn out when `CNCCCC1Cc2cc(F)ccc2N(c2cccc(F)c2F)S1(=O)=O` (racemic) [Example 145, 3-[1-(2,3-difluorophenyl)-6-fluoro-2,2-dioxido-3,4-dihydro-1H-2,1-benzothiazin-3-yl]-N-methylpropan-1-amine] was run?
Answer: Its IC50 is 74 nM.

Question: Which IC50 does the source give for `CNCCCC1Cc2cc(F)ccc2N(c2ccc(C)cc2F)S1(=O)=O` (racemic) [Example 148, 3-[6-fluoro-1-(2-fluoro-4-methylphenyl)-2,2-dioxido-3,4-dihydro-1H-2,1-benzothiazin-3-yl]-N-methylpropan-1-amine] here?
Answer: The IC50 was 51 nM.

Question: Which IC50 does the source give for `CNCCCC1Cc2cc(F)ccc2N(c2cc(F)ccc2F)S1(=O)=O` (racemic) [Example 151, 3-[1-(2,5-difluorophenyl)-6-fluoro-2,2-dioxido-3,4-dihydro-1H-2,1-benzothiazin-3-yl]-N-methylpropan-1-amine] here?
Answer: Its IC50 is 31 nM.

Question: `CNCCCC1Cc2cc(F)ccc2N(c2c(F)cccc2F)S1(=O)=O` (racemic) [Example 154, 3-[1-(2,6-difluorophenyl)-6-fluoro-2,2-dioxido-3,4-dihydro-1H-2,1-benzothiazin-3-yl]-N-methylpropan-1-amine] was tested. Which IC50 did it give?
Answer: The IC50 was 31 nM.

Question: How did the IC50 turn out when `CNCCCC1Cc2cc(F)ccc2N(c2ccccc2Cl)S1(=O)=O` (racemic) [Example 157, 3-[1-(2-chlorophenyl)-6-fluoro-2,2-dioxido-3,4-dihydro-1H-2,1-benzothiazin-3-yl]-N-methylpropan-1-amine] was run?
Answer: Its IC50 is 128 nM.

Question: `CNCCCC1Cc2cc(F)ccc2N(c2ccccc2C)S1(=O)=O` (racemic) [Example 160, 3-[6-fluoro-1-(2-methylphenyl)-2,2-dioxido-3,4-dihydro-1H-2,1-benzothiazin-3-yl]-N-methylpropan-1-amine] was tested. Which IC50 did it give?
Answer: The IC50 was 142 nM.

Question: Which IC50 does the source give for `CNCCCC1Cc2cc(F)ccc2N(c2ccccc2C#N)S1(=O)=O` (racemic) [Example 163, 2-{6-fluoro-3-[3-(methylamino)propyl]-2,2-dioxido-3,4-dihydro-1H-2,1-benzothiazin-1-yl}benzonitrile] here?
Answer: Its IC50 is 189 nM.

Question: Which IC50 does the source give for `CNCCCC1Cc2cc(F)ccc2N(c2ccccc2OC)S1(=O)=O` (racemic) [Example 166, 3-[6-fluoro-1-(2-methoxyphenyl)-2,2-dioxido-3,4-dihydro-1H-2,1-benzothiazin-3-yl]-N-methylpropan-1-amine] here?
Answer: Its IC50 is 304 nM.

Question: With `CNCCCC1Cc2cc(F)ccc2N(c2ccc(F)cc2C)S1(=O)=O` (racemic) [Example 169, 3-[6-fluoro-1-(4-fluoro-2-methylphenyl)-2,2-dioxido-3,4-dihydro-1H-2,1-benzothiazin-3-yl]-N-methylpropan-1-amine] as the molecule, how does the IC50 read?
Answer: The IC50 was 96 nM.

Question: With `CNCCC[C@H]1Cc2ccccc2N(c2ccccc2)S1(=O)=O` (single isomer, unassigned) [Example 10] as the molecule, how does the IC50 read?
Answer: Its IC50 is 96 nM.

Question: For `CNCCC[C@@H]1Cc2ccccc2N(c2ccccc2)S1(=O)=O` (single isomer, unassigned) [Example 11], which IC50 is on record?
Answer: Its IC50 is 17.9 nM.

Question: How did the IC50 turn out when `CNCCC[C@H]1Oc2ccccc2N(c2ccccc2)S1(=O)=O` (single isomer, unassigned) [Example 13] was run?
Answer: The IC50 was 38.7 nM.

Question: `CNCCC[C@@H]1Oc2ccccc2N(c2ccccc2)S1(=O)=O` (single isomer, unassigned) [Example 14] was tested. Which IC50 did it give?
Answer: Its IC50 is 23.9 nM.

Question: With `CNCCC[C@H]1Oc2cc3ccccc3cc2N(c2ccccc2)S1(=O)=O` (single isomer, unassigned) [Example 71, Hydrochloride] as the molecule, how does the IC50 read?
Answer: The IC50 was 69.4 nM.

Question: How did the IC50 turn out when `CNCCC[C@@H]1Oc2cc3ccccc3cc2N(c2ccccc2)S1(=O)=O` (single isomer, unassigned) [Example 72, Hydrochloride] was run?
Answer: Its IC50 is 115 nM.

Question: `CNCCC[C@H]1Cc2ccccc2N(c2ccccc2F)S1(=O)=O` (single isomer, unassigned) [Example 74, Hydrochloride] was tested. Which IC50 did it give?
Answer: The IC50 was 58.5 nM.

Question: `CNCCC[C@@H]1Cc2ccccc2N(c2ccccc2F)S1(=O)=O` (single isomer, unassigned) [Example 75] was tested. Which IC50 did it give?
Answer: The IC50 was 3.7 nM.

Question: How did the IC50 turn out when `CNCCC[C@H]1Cc2ccccc2N(c2ccccc2F)S1(=O)=O` (single isomer, unassigned) [Example 90] was run?
Answer: The IC50 was 59 nM.

Question: `CNCCC[C@@H]1Cc2ccccc2N(c2ccccc2F)S1(=O)=O` (single isomer, unassigned) [Example 91] was tested. Which IC50 did it give?
Answer: The IC50 was 4 nM.

Question: Which IC50 does the source give for `CNCCC[C@@H]1Oc2ccccc2N(c2ccccc2F)S1(=O)=O` (single isomer, unassigned) [Example 94] here?
Answer: Its IC50 is 22 nM.

Question: For `CNC[C@@H](O)C[C@H]1Oc2ccccc2N(c2ccccc2)S1(=O)=O` (single isomer, unassigned) [Example 98], which IC50 is on record?
Answer: Its IC50 is 77 nM.

Question: How did the IC50 turn out when `CNCCC[C@H]1Cc2ccccc2N(c2ccc(F)cc2F)S1(=O)=O` (single isomer, unassigned) [Example 100] was run?
Answer: The IC50 was 343 nM.

Question: `CNCCC[C@@H]1Cc2ccccc2N(c2ccc(F)cc2F)S1(=O)=O` (single isomer, unassigned) [Example 101] was tested. Which IC50 did it give?
Answer: The IC50 was 49 nM.

Question: How did the IC50 turn out when `NCC[C@H]1Oc2ccccc2N(c2ccccc2)S1(=O)=O` (single isomer, unassigned) [Example 102] was run?
Answer: The IC50 was 1270 nM.

Question: Which IC50 does the source give for `NCC[C@@H]1Oc2ccccc2N(c2ccccc2)S1(=O)=O` (single isomer, unassigned) [Example 103] here?
Answer: The IC50 was 3320 nM.

Question: For `CNCC[C@H]1Oc2ccccc2N(c2ccccc2)S1(=O)=O` (single isomer, unassigned) [Example 104], which IC50 is on record?
Answer: The IC50 was 302 nM.

Question: For `CNCC[C@@H]1Oc2ccccc2N(c2ccccc2)S1(=O)=O` (single isomer, unassigned) [Example 105], which IC50 is on record?
Answer: Its IC50 is 1220 nM.

Question: With `CNCCC[C@H]1Oc2cc(F)ccc2N(c2ccccc2)S1(=O)=O` (single isomer, unassigned) [Example 106] as the molecule, how does the IC50 read?
Answer: The IC50 was 97 nM.

Question: Which IC50 does the source give for `CNCCC[C@@H]1Oc2cc(F)ccc2N(c2ccccc2)S1(=O)=O` (single isomer, unassigned) [Example 107] here?
Answer: The IC50 was 74 nM.

Question: For `CNCCC[C@H]1Cc2cc(F)ccc2N(c2ccc(F)cc2F)S1(=O)=O` (single isomer, unassigned) [Example 112], which IC50 is on record?
Answer: Its IC50 is 100 nM.

Question: With `CNCCC[C@@H]1Cc2cc(F)ccc2N(c2ccc(F)cc2F)S1(=O)=O` (single isomer, unassigned) [Example 113] as the molecule, how does the IC50 read?
Answer: The IC50 was 34 nM.

Question: With `CNCC[C@H](O)[C@@H]1Cc2ccccc2N(c2ccccc2)S1(=O)=O` (single isomer, unassigned) [Example 114] as the molecule, how does the IC50 read?
Answer: Its IC50 is 101 nM.

Same assay, conditions: MDCK-Net6 cells, 6,000 cells/well; Conc 6000 nM (6 μM); read-out: Procedure B hNET uptake (% inhibition)

Question: For `CNCCCC1Cc2ccccc2N(c2ccncc2)S1(=O)=O` (racemic) [Example 133, 3-(2,2-dioxido-1-pyridin-4-yl-3,4-dihydro-1H-2,1-benzothiazin-3-yl)-N-methylpropan-1-amine], which inhibition at 6 µM is on record?
Answer: Its inhibition at 6 µM is 35%.
